Measurements from patent US11091428B2 (HAPLOGEN GMBH, priority 2016, dated 2021).
pEC50, pIC50: −log10 of the molar value.

Legend:
[1] = target: T1, PLA2G16 (Homo sapiens, UniProt P53816); assay: Enzyme activity assay for PLA2G16 (Red/Green BODIPY PC-A2 fluorescence); assay type: biochemical; settings: His-tagged PLA2G16, 4 min pre-incubation, 2 nM to 50 μM; read-out: IC50 values of the compounds determined in the enzyme activity assay for PLA2G16
T1 construct: Hexa-His (N); made in house; host or cells: E. coli BL21(DE3)
T1 sequence (P53816 1-162): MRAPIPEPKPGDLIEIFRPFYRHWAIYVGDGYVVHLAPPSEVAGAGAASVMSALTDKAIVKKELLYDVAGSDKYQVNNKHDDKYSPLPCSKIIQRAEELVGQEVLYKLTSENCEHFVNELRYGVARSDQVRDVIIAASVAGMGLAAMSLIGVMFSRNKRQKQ
Text: A cDNA for PLA2G16(NM_007069) was custom-synthesized by Genscript (Piscataway, USA) and inserted into a pET-based bacterial expression vector [Moffatt, B. A. and Studier, F. W. (1986) J. Mol. Biol. 189, 113-130; Rosenberg, A. H., Lade, B. N., Chui, D., Lin, S., Dunn, J. J., and Studier, F. W. (1987) Gene 56, 125-135], enabling the expression of N-terminally Hexa-His-tagged PLA2G16. E. coli BL21(DE3) (Agilent) were transformed with pET-His-PLA2G16according to the manufacturer's instructions and plated on Carbenicillin-containing agar plates (final concentration: 100 μg/mL). A single clone was in occulated in 100 mL LB medium supplemented with 100 μg/mL Carbenicillin and the in occulated culture was grown at 37° C. overnight in a rotary shaker. On the next day, the bacterial culture was diluted in LB medium supplemented with 100 μg/mL Carbenicillin (30 mL overnight culture in 800 mL total culture volume). Bacteria were grown at 37° C. until the OD600 reached 0.6. Gene expression was induced by addition of 1 mM isopropyl-β-D-thiogalactopyranosid (IPTG) for 2 h at 18° C. Subsequently, bacteria were harvested by centrifugation (15 min; 10,000×g; 4° C.) and frozen at −80° C. The bacterial pellet was resuspended in Buffer A (50 mM Tris/HCl pH 7.5, 500 mM NaCl, 5% glycerol, 5 mM β-Mercaptoethanol and 1 mM PMSF) and lysed by addition of 1 mg/mL lysozyme (Sigma Aldrich) and 100 μg/mL DNasel-(Roche). The sample was incubated at 30° C. for 30 min to allow lysis to occur. Then, the lysate was cleared by centrifugation (15,000×g, 15 min, 4° C.) and incubated with 1.5 mL Ni-NTA agarose suspension (Qiagen) for 60 min at 4° C. The Ni-NTA agarose was washed with 10 mL Buffer A. Bound protein was eluted by applying a manual gradient of Buffer A supplemented with increasing concentrations of imidazole (Sigma Aldrich; 25/50/75/100/250 mM). Purified fractions were analyzed by SDS-PAGE followed by Coomassie staining to assess the purity.
Activity of the protein was assessed as follows: Red/Green BODIPY® PC-A2 (Invitrogen, 1 mM in DMSO) was mixed with equal volumes of 1,2-Dioleoyl-sn-glycero-3-phosphocholine (DOPC; Sigma Aldrich, 10 mM in Ethanol) and 1,2-Dioleoyl-sn-glycero-3-phospho-rac-(1-glycerol) (DOPG; Sigma Aldrich, 10 mM in Ethanol) and 0.5 volumes of Cholesterol (CHOL; Sigma Aldrich, 10 mM in Ethanol) and vortexed for 5 s. The mixture (Red/Green BODIPY® PC-A2/DOPC/DOPG/CHOL) was diluted 1:91.4 in activity assay buffer (50 mM Tris/HCl pH 8.5, 100 mM NaCl) using a small-orifice pipette tip under constant vortexing. In the following, this preparation will be referred to as the “substrate solution”.
In order to evaluate their inhibitory potential, compounds were dissolved at 10 mM concentration in DMSO and directly spotted into assay plates (Corning, Cat. No. 3576) using acoustic liquid transfer (Labcyte Echo 525). Each compound was spotted at increasing concentrations, ranging from 2 nM to 50 μM (concentration in the final assay volume). 50 μl of PLA2G16 enzyme solution (diluted in activity buffer, supplemented with 5 mM L-Glutathione; Sigma Aldrich) was pre-incubated with compounds for 4 min., followed by addition of 50 μl of substrate solution. Fluorescence was recorded immediately after substrate addition for a total time of 10 min. using a SpectraMax M5 multimode reader (Excitation wavelength: 480 nm, emission wavelength: 530 nm). The relative increase of fluorescence over time is referred to as the enzyme activity. Half-maximal inhibitory concentrations (IC50) were derived by non-linear regression analysis using the drc package in R (R Development. Core Team, 2005).

[2] = tested on: picornaviruses (CVB1, HRV-A2, HRV-A23, EV-68); assay: Anti-picornavirus cytopathic effect (CPE) reduction assay on HeLa H1 cells; assay type: cell-based; settings: Enterovirus B, HeLa H1, 48 h, HeLa H1 cells, 48 h, category from averaging the EC50 values from four picornaviruses (CVB1, HRV-A2, HRV-A23, EV68); read-out: EC50 values of the compounds determined in the anti-picornavirus assay
Procedure: The antiviral activity of selected compounds was tested using a cytopathic effect (CPE) reduction assay on HeLa H1 cells (ATCC CRL-1958). Briefly, cells were seeded in 96-well dishes (2×10^4 cells/well) in DMEM medium (Life technologies) supplemented with 10% FBS and PenStrep solution (100 U/mL Penicillin and 100 μg/mL streptomycin) and incubated at 37° C., 5% CO2 ovemight. The next day, cells were pre-treated with serial dilutions of the compound in DMEM medium supplemented with 2% FBS and PenStrep for 2 h at 37° C., 5% CO2. Next, cells were infected with virus (CVB1, HRV-A2, HRV-A23, EV-68) at an multiplicity of infection (MOI) which results in a complete virus-induced CPE within 2 days in control wells (infected and vehicle-treated). After 48 h, supematants were aspirated and 50 μl/well of CellTiterBlue reagent (Promega) diluted 1:5 in DMEM+2% FBS, was added to the cells. Plates were returned to the incubator and allowed to develop for 1.5 h. After that, plates were equilibrated to RT and subsequently, fluorescence was recorded (Excitation wavelength: 560 nm; emission wavelength: 590 nm) using a SpectraMax M5 multimode plate reader. Viability of cells was calculated according to the formula: V=(RFUCpd−RFUVeh/(RFUM−RFUVeh), where RFUCpd refers to infected and compound-treated cells, RFUVeh to infected and vehicle-treated cells and RFUM to uninfected and vehicle treated cells. Half-maximal effective concentrations (EC50) were calculated by non-linear regression analysis using the drc package in R (R Development. Core Team, 2005). EC50 categories as presented in Table 2 were calculated by averaging the EC50 values from four picornaviruses (CVB1, HRV-A2, HRV-A23, EV68).

O=C(NC1CCN(C(=O)NC2CCC2)CC1)C(=O)[C@H]1CCC(=O)N1Cc1ccccc1 [FP 324, 4-{2-[(2R)-1-Benzyl-5-oxopyrrolidin-2-yl]-2-oxoacetamido}-N-cyclobutylpiperidine-1-carboxamide]
pIC50 [1]: > 6.00
pEC50 [2]: > 6.00

CC(C)C(=O)N1CC(NC(=O)C(=O)[C@H]2CCC(=O)N2Cc2ccccc2)C1 [FP 316, 2-[(2R)-1-Benzyl-5-oxopyrrolidin-2-yl]-N-[1-(2-methylpropanoyl)azetidin-3-yl]-2-oxoacetamide]
pIC50 [1]: > 6.00
pEC50 [2]: 5.00 to 6.00

CC(C(=O)C(=O)NCCOC1CCCCC1)N(C=O)C1CCCCC1 (centres unmarked) [FP 55, 3-(N-Cyclohexylformamido)-N-[2-(cyclohexyloxy)ethyl]-2-oxobutanamide]
pIC50 [1]: > 6.00
pEC50 [2]: > 6.00

O=C(N[C@@H]1CCCCNC1=O)C(=O)[C@H]1CCC(=O)N1Cc1ccccc1 [FP 300, 2-[(2R)-1-Benzyl-5-oxopyrrolidin-2-yl]-2-oxo-N-[(3R)-2-oxoazepan-3-yl]acetamide]
pIC50 [1]: > 6.00
pEC50 [2]: 5.00 to 6.00

Cc1ccncc1C(=O)NC(C)C(=O)C(=O)NCC1CCCCC1 (centres unmarked) [FP 209, N-(Cyclohexylmethyl)-3-[(4-methylpyridin-3-yl)formamido]-2-oxobutanamide]
pIC50 [1]: > 6.00
pEC50 [2]: 5.00 to 6.00

O=C(N[C@@H]1C[C@@H]1F)C(=O)C1N(Cc2ccccc2)C(=O)CC12CC2 (stereo partly drawn) [FP 346, 2-{5-Benzyl-6-oxo-5-azaspiro[2.4]heptan-4-yl}-N-[(1R,2S)-2-fluorocyclopropyl]-2-oxoacetamide]
pIC50 [1]: > 6.00
pEC50 [2]: > 6.00

O=C(NCC1CCCCC1)C(=O)C1CCC(=O)N1Cc1ccc2c(c1)CNC2=O (centres unmarked) [FP 244, N-(Cyclohexylmethyl)-2-oxo-2-{5-oxo-1-[(1-oxo-2,3-dihydro-1H-isoindol-5-yl)methyl]-pyrrolidin-2-yl}acetamide]
pIC50 [1]: > 6.00
pEC50 [2]: 5.00 to 6.00

COc1ccccc1N(C=O)C(C)C(=O)C(=O)NCc1ccccn1 (centres unmarked) [FP 96, 3-[N-(2-Methoxyphenyl)formamido]-2-oxo-N-[(pyridin-2-yl)methyl]butanamide]
pIC50 [1]: > 6.00
pEC50 [2]: < 5.00

COc1ccccc1N(C=O)C(C)C(=O)C(=O)NCc1cccc(Cl)c1 (centres unmarked) [FP 1, N-[(3-Chlorophenyl)methyl]-3-[N-(2-methoxyphenyl)formamido]-2-oxobutanamide]
pIC50 [1]: > 6.00
pEC50 [2]: > 6.00

COc1ccccc1N(C=O)C(C)C(=O)C(=O)NC(C)(C)C (centres unmarked) [FP 75, N-tert-Butyl-3-[N-(2-methoxyphenyl)formamido]-2-oxobutanamide]
pIC50 [1]: > 6.00
pEC50 [2]: 5.00 to 6.00

CC(C(=O)C(=O)NCC1CC1)N(C=O)Cc1ccccc1 (centres unmarked) [FP 37, 3-(N-Benzylformamido)-N-(cyclopropyylmethyl)-2-oxobutanamide]
pIC50 [1]: > 6.00
pEC50 [2]: > 6.00

COc1ccccc1OC(C)C(=O)C(=O)NC(C)C (centres unmarked) [FP 135, 3-(2-Methoxyphenoxy)-2-oxo-N-(propan-2-yl)butanamide]
pIC50 [1]: > 6.00
pEC50 [2]: 5.00 to 6.00

O=C(NC1CC1)C(=O)C1CCC(=O)N1CC1CCCC1 (centres unmarked) [FP 279, 2-[1-(Cyclopentylmethyl)-5-oxopyrrolidin-2-yl]-N-cyclopropyl-2-oxoacetamide]
pIC50 [1]: > 6.00
pEC50 [2]: 5.00 to 6.00

CCCNC(=O)C(=O)[C@H]1CCC(=O)N1Cc1ccccc1 [FP 288, 2-[(2R)-1-Benzyl-5-oxopyrrolidin-2-yl]-2-oxo-N-propylacetamide]
pIC50 [1]: > 6.00
pEC50 [2]: > 6.00

CC(C)CC(C(=O)C(=O)NCC1CC1)N(C=O)CC1CCOC1 (centres unmarked) [FP 73, N-(Cyclopropylmethyl)-5-methyl-2-oxo-3-{N-[(oxolan-3-yl)methyl]formamido} hexanamide]
pIC50 [1]: > 6.00
pEC50 [2]: 5.00 to 6.00

CC(C(=O)C(=O)NC1CC1)N(C=O)Cc1ccccc1 (centres unmarked) [FP 44, 3-(N-Benzylformamido)-N-cyclopropyl-2-oxobutanamide]
pIC50 [1]: > 6.00
pEC50 [2]: 5.00 to 6.00
